Reference: patent US12258337B2, “Bicyclic CX3CR1 receptor agonists” (Board of Regents, The University of Texas System, priority 2019, dated 2025)

Key:
Assay type in all cases: cell-based
rCX3CR1 = biological target: T1, rCX3CR1 (Rattus norvegicus, UniProt P35411); assay: Ga16 assay, CX3CR1 agonism, Ca2+ sensitive photo-protein readout (FLIPRTETRA); conditions: rat CX3CR1 cell line
T1 construct: expressed in transfected cells; stably expresses a Ca2+ sensitive photo-protein
T1 sequence (P35411 1-354): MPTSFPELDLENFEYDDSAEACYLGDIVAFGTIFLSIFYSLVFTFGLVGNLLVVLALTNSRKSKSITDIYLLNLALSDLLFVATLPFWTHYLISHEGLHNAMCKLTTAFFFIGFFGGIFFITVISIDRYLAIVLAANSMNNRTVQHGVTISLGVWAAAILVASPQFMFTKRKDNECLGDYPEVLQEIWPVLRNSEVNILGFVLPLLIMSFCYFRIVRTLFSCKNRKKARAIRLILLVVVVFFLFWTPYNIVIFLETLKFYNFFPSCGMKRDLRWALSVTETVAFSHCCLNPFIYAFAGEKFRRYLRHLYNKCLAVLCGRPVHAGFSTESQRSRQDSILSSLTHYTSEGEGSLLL
How it was run: (§1)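 Cells expressing human, mouse or rat CX3CR1 with a stably expressed Ca2+-sensitive photoprotein were loaded with 10 μM coelenterazine in tyrode buffer pH 7.4 for 3 h at room temperature. Agonist-mode luminescence kinetics were recorded for 90 s after compound injection on FLIPRTETRA. Dose-response runs were done in quadruplicate, with fractalkine as the reference agonist.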

mCX3CR1 = biological target: T2, mCX3CR1 (Mus musculus, UniProt Q9Z0D9); assay: as above; conditions: mouse CX3CR1 cell line
T2 construct: expressed in transfected cells; stably expresses a Ca2+ sensitive photo-protein
T2 sequence (Q9Z0D9 1-354): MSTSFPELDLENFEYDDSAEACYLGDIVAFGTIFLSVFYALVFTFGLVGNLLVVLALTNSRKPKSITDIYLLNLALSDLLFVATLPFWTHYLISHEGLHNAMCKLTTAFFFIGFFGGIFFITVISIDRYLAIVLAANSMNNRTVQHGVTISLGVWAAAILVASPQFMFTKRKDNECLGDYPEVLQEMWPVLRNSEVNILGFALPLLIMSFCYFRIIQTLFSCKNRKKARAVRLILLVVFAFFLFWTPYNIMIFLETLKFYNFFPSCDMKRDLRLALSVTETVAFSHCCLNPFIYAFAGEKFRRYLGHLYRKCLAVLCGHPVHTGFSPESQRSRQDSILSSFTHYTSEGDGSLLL
How it was run: as §1

hCX3CR1 = biological target: T3, hCX3CR1 (Homo sapiens, UniProt P49238); assay: Suchi5 assay (HEK/NatClytin/CNG/Suchi5 transiently transfected hCX3CR1, Fluo-8 Ca2+ readout); parameters: expressed in transfected cells; stably expresses a Ca2+ sensitive photo-protein; conditions: Suchi5 assay, HEK/NatClytin/CNG/Suchi5 transfected with hCX3CR1; read-out: hCX3CR1 agonism EC50
T3 sequence (P49238 1-355): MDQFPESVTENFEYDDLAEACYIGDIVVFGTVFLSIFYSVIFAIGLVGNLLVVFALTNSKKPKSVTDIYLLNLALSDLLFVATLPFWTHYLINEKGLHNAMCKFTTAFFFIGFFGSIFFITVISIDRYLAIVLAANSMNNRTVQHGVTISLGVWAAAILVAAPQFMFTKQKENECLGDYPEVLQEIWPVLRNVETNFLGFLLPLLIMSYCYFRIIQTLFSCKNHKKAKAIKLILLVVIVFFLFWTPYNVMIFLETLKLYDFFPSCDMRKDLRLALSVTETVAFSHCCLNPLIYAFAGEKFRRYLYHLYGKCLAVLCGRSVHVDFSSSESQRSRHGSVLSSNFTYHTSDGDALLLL
Protocol: Buffers and reagents. PBS (D-PBS without calcium and magnesium; EuroClone); Trypsin (Trypsin 0.05%, EDTA 0.02% in PBS; EuroClone); Opti-MEM medium (Thermo Fisher); DMSO (Sigma); Standard tyrode buffer: in-house solution (130 mM NaCl, 5 mM KCl, 2 mM CaCl2), 1 mM MgCl2, 5 mM NaHCO3, 20 mM HEPES in water at pH 7.4; sterile filtered); Screen Quest™ Fluo-8 No Wash Calcium Assay Kit (AAt Bioquest®); Lipofectamine® 2000 Reagent (Thermo Fisher); Agonist: Recombinant Human Fractalkine (CX3CL1) (PeproTech); stock: 10 μM in standard Tyrode buffer/BSA 01%; stored at −20° C.
Cell line. The final cell line for CX3CR1-Suchi5 assay is HEK/NatClytin/CNG/Suchi5 transiently transfected hCX3CR1 cDNA. In this cell line native Gαi signaling is switched to Gαq pathway thanks to the overexpression of a Gαiq chimeric G protein (called Suchi5) to direct Gαi activation towards Ca^2+ release for measurement.
Assay protocol. Experiments are performed in 384 MTP format. Transiently transfected cells are seeded at 20,000 cells/well in 25 μl/well Opti-MEM medium without selection antibiotics in 384-well plates. 4-5-hours later 25 μL/well of complete medium with 20% of FBS are added to the cells. Twenty-four hours later, cells are assayed for the response to various compounds using a fluorescent Ca^2+ sensitive dye (FLUO8-No Wash Dye) as readout.
The experiment is performed in a 384-well format according to the following procedure: • 24h after seeding, remove the culture medium. • Load cells with 20 μL/well of 0.5X FLUO-8 No Wash Dye diluted in assay buffer. • Incubate cell plates for 1 hour at RT. • Inject 10 μL/w of 3× concentrated test compounds and controls in assay buffer at the FLIPRTETRA and monitor the kinetic response over a period of 90 seconds.
Data from FLIPRTETRA measurements are analyzed with the Genedata Screener© software.

Row | EC50 (rCX3CR1) | EC50 (mCX3CR1) | EC50 (hCX3CR1) | SMILES
1 | 10.2 µM | 11.3 µM | 12.9 µM | O=C(NCC1(CN2CCCC2)CCCC1)c1cc2c(s1)CCCCCC2 [Example 5, N-[[1-(pyrrolidin-1-ylmethyl)cyclopentyl]methyl]-4,5,6,7,8,9-hexahydrocycloocta[b]thiophene-2-carboxamide]
2 | 20 µM | 24.2 µM | 5.5 µM | O=C(NCC1(CN2CCCCC2)CCCC1)c1cc2c(s1)CCCCCC2 [Example 15, N-[[1-(piperidin-1-ylmethyl)cyclopentyl]methyl]-4,5,6,7,8,9-hexahydrocycloocta[b]thiophene-2-carboxamide]
3 | 16.9 µM | 16 µM | 9.6 µM | CC(C)(CNC(=O)c1cc2c(s1)CCCCCC2)CN1CCCCC1 [Example 13, N-(2,2-dimethyl-3-piperidin-1-ylpropyl)-4,5,6,7,8,9-hexahydrocycloocta[b]thiophene-2-carboxamide]
4 | 13.9 µM | 15.7 µM | 13.9 µM | CC(C)(CNC(=O)c1cc2c(s1)CCCCCC2)CN1CCCC1 [Example 1, N-(2,2-dimethyl-3-pyrrolidin-1-ylpropyl)-4,5,6,7,8,9-hexahydrocycloocta[b]thiophene-2-carboxamide]
5 | 11.4 µM | 14.8 µM | 5.8 µM | O=C(NCC1(CN2CCCC2)CC(O)C1)c1cc2c(s1)CCCCCC2 (stereo not drawn) [Example 32, N-[[3-hydroxy-1-(pyrrolidin-1-ylmethyl)cyclobutyl]methyl]-4,5,6,7,8,9-hexahydrocycloocta[b]thiophene-2-carboxamide]
6 | 26.1 µM | 44.7 µM | 9.3 µM | CN(C)CC(C)(C)CNC(=O)c1cc2c(s1)CCCCCC2 [Example 70, N-[3-(dimethylamino)-2,2-dimethylpropyl]-4,5,6,7,8,9-hexahydrocycloocta[b]thiophene-2-carboxamide]
7 | 13.4 µM | 17 µM | 36.1 µM | CN(CCO)CC1(CNC(=O)c2cc3c(s2)CCCCCC3)CCC1 [Example 30, N-[[1-[[2-hydroxyethyl(methyl)amino]methyl]cyclobutyl]methyl]-4,5,6,7,8,9-hexahydrocycloocta[b]thiophene-2-carboxamide]
8 | 14.8 µM | 18.5 µM | 4.7 µM | CN(C)CC1(CNC(=O)c2cc3c(s2)CCCCCC3)CC(O)C1 (stereo not drawn) [Example 31, N-[[1-[(dimethylamino)methyl]-3-hydroxycyclobutyl]methyl]-4,5,6,7,8,9-hexahydrocycloocta[b]thiophene-2-carboxamide]
9 | 23.1 µM | 39.7 µM | 11.8 µM | O=C(NCC1(CN2CCC(O)C2)CCCC1)c1cc2c(s1)CCCCCC2 (racemic) [Example 25, N-[[1-[(3-hydroxypyrrolidin-1-yl)methyl]cyclopentyl]methyl]-4,5,6,7,8,9-hexahydrocycloocta[b]thiophene-2-carboxamide]
10 | 9.5 µM | 11.5 µM | 6.5 µM | CN(C)CC1(CNC(=O)c2cc3c(s2)CCCCCC3)CCC1 [Example 23, N-[[1-[(dimethylamino)methyl]cyclobutyl]methyl]-4,5,6,7,8,9-hexahydrocycloocta[b]thiophene-2-carboxamide]
11 | 10.8 µM | 12.7 µM | 7.5 µM | O=C(NCC1(CN2CCCC(O)C2)CCCC1)c1cc2c(s1)CCCCCC2 (stereo not drawn) [Example 27, N-[[1-[(3-hydroxypiperidin-1-yl)methyl]cyclopentyl]methyl]-4,5,6,7,8,9-hexahydrocycloocta[b]thiophene-2-carboxamide]
12 | 5.8 µM | 6.6 µM | 4.7 µM | O=C(NCC1(CN2CCCC2)CCC1)c1cc2c(s1)CCCCCC2 [Example 21, N-[[1-(pyrrolidin-1-ylmethyl)cyclobutyl]methyl]-4,5,6,7,8,9-hexahydrocycloocta[b]thiophene-2-carboxamide]
13 | 9.4 µM | 10 µM | 6.7 µM | O=C(NCC1(CN2CCC(O)CC2)CCCC1)c1cc2c(s1)CCCCCC2 [Example 28, N-[[1-[(4-hydroxypiperidin-1-yl)methyl]cyclopentyl]methyl]-4,5,6,7,8,9-hexahydrocycloocta[b]thiophene-2-carboxamide]
14 | 8.5 µM | 10.3 µM | 5.4 µM | CN(C)CC1(CNC(=O)c2cc3c(s2)CCCCCC3)CCCC1 [Example 2, N-[[1-[(dimethylamino)methyl]cyclopentyl]methyl]-4,5,6,7,8,9-hexahydrocycloocta[b]thiophene-2-carboxamide]
